SMILES strings stand for the structures.

Turning to `Oc1ccc(C(F)(F)F)cc1C=S`, the melting point (as a rule, the temperature of the solid-liquid transition) fell in the range of 50 to 52 °C.

For `CCCCc1nn(-c2ccc(C(F)(F)F)cn2)cc1CCCOc1ccccc1CC(=O)O`, the melting point fell in the range of 106 to 107 °C.

`CCCCCCNC(=O)n1nc(Oc2c(Cl)cc(C(F)(F)F)cc2Cl)c(Cl)c1C`: the melting point fell in the range of 86 to 88 °C.

Take `O=C1NC(=O)c2c1c(-c1ccccc1Cl)cc1c2c2cc(O)ccc2n1CCS(=O)c1ncn[nH]1` (stereo unspecified): the melting point fell in the range of 237 to 242 °C.

Compound `CC(C)C(O)=C(C#N)C#N` returned a melting point of 92 to 93 °C.

Consider `CCOC(=O)c1cncn1C1CC(C)(C)Oc2ccccc21` (stereo unspecified), for which the melting point turned out to be 80.9 °C.

`CCOC(=O)c1ccc(-c2nn(Cc3ccc(Cl)s3)c3ccccc23)o1` registered a melting point of 124 to 126 °C.

For the compound `CSc1c(CC(=O)O)ccc2c3ccccc3n(Cc3ccc(Cl)cc3)c12`, the melting point lay in the range of 176 to 178 °C.

For the compound `CCc1ccc(-c2ccc(I)cc2)cc1`, the melting point is 145 to 149 °C.

In the case of `COC(=O)c1cc(I)cn1C`, the melting point lay within 64 to 65 °C.

Consider `CC(C)(C)OC(=O)NC(Cc1ccccc1)C(O)CNCC(O)C(Cc1ccccc1)NC(=O)OC1c2ccccc2CC1O` (stereo unspecified), for which the melting point fell in the range of 131 to 133 °C.

`C=CCOC1C(OC2C(COCc3ccccc3)OC(OC)C(OCc3ccccc3)C2OCc2ccccc2)OC(CO)C(O)C1OCc1ccccc1` (stereo unspecified) returned a melting point of 119 to 120 °C.

With `COc1ccc(C(=O)Nc2c(Cl)cncc2Cl)c2cc(C)oc12`, the melting point was found to be 233 °C.

`CC(=O)OC[C@H]1O[C@@H]2[C@@H](Sc3ccc(Cl)cc3N2CCCN(C)C)[C@@H](OC(C)=O)[C@@H]1OC(C)=O` came in with a melting point of 149 to 151 °C.

For `NC(=O)c1ncccc1CCc1cccc(F)c1`, the melting point lay within 102 to 104 °C.

`N#CC(C#N)=C(NCC(=O)O)Nc1cc(Cl)cc(Cl)c1` returned a melting point of 103 °C.

In turn, `O=C(O)CCCN(C(=O)c1ccc(F)cc1)c1ccccc1-c1ccccc1` displayed a melting point of 120 to 122 °C.

On to `CC1CC2C3CC(Cl)C4=CC(=O)C=CC4(C)C3C(O)CC2(C)C1C(=O)COC(=O)C(C)(C)C` (stereo unspecified), for which the melting point was 189 °C.

`CCCCNC(=O)c1cnc2cccc(C)n2c1=O`: the melting point was in the range of 127 to 130 °C.

In turn, `CCCOc1c(OCc2ccccc2)cc(C2CCC(=O)O2)cc1S(=O)(=O)CCC` (stereo unspecified) returned a melting point of 95 to 96 °C.

In turn, `Cc1nc(C2(C)CC2(Cl)Cl)nn1-c1c(Cl)cc(C(F)(F)F)cc1Cl` (stereo unspecified) came in with a melting point of 107 to 116 °C.

Take `CCN1c2cscc2C(=O)N(CCN(C)C)c2ccccc21`: the melting point was in the range of 75 to 77 °C.

Compound `CC(O)c1nc(N)nc(N)c1-c1ccc(Cl)cc1` (stereo unspecified) yielded a melting point of 159 °C.

Take `Cc1onc(-c2ccc(Br)o2)c1-c1ccccc1`: the melting point is 93 to 96 °C.

As for `O=C(O)CN1C(=O)C(c2ccccc2)c2ccccc21` (stereo unspecified), the melting point was 180 to 181 °C.

The compound `Nc1cccc(CC(=O)O)c1` gave a melting point of 116 to 121 °C.

Compound `CCN1C[C@@H](SCc2ccc(OC)cc2)C[C@H]1C(=O)NC` had a melting point of 68 to 70 °C.

`OCc1ccc(OCCCCl)cc1` showed a melting point of 65 °C.

For `CCCCCCCN1C(=O)C2CC2(c2ccc(N)cc2)C1=O` (stereo unspecified), the melting point lay within 78 to 79 °C.

`COc1cc2c(cc1OC)C(C=Cc1cccc(OC)c1OC)=NN(C(C)=O)C(C)C2` (stereo unspecified): the melting point was 72 to 74 °C.

`Cc1cc(SCc2ccnc3sc(-c4ccc(C(F)(F)F)cc4)nc23)ccc1OCC(=O)O` displayed a melting point of 82 to 85 °C.

In the case of `O=C1Cc2cc(Oc3ccccc3Cl)ccc2N1`, the melting point was in the range of 139 to 140 °C.

On to `O=Cc1c[nH]c2cc(F)c(OCc3ccccc3)cc12`, for which the melting point is 190 °C.

In turn, `Cc1ccc2c(c1)C=C(c1ccc(OCCN3CCCC3)cc1)S2=O` (stereo unspecified) showed a melting point of 150 to 151 °C.

`COc1cccc(C=O)c1OS(=O)(=O)c1ccccc1` had a melting point of 120 to 122 °C.

In turn, `CCOC(=O)c1csc([N+](=O)[O-])c1Br` showed a melting point of 94 to 95 °C.

`O=C(Cl)c1cscc1S(=O)(=O)Cl` gave a melting point of 78 to 79 °C.

For the compound `CC(C)(C)C1OCCO1`, the melting point was found to be 86 °C.

With `CN(c1ccc(O)cc1)c1nc2cc(Cl)ccc2s1`, the melting point was in the range of 238 to 240 °C.

For `COC(=O)N(CC(=O)O)C(=O)c1c(OCC(F)(F)F)ccc2c(C(F)(F)F)c(OC)ccc12`, the melting point was 186 to 187 °C.

As for `CCCNCCc1ccc(NS(=O)(=O)c2ccc(Cl)cc2Cl)cc1`, the melting point lay within 165 to 168 °C.

On to `CNc1cc(F)ccc1C(=O)CS(C)(=O)=O`, for which the melting point lay in the range of 144 to 145 °C.

The compound `O=C1CC(c2ccccc2O)=Nc2ccc(N3CCCC3)cc21` gave a melting point of 304 to 306 °C.

`Fc1ccc2nc[nH]c2c1` displayed a melting point of 194 to 196 °C.

Take `NNC1=NS(=O)(=O)c2cnccc2N1`: the melting point lay in the range of 290 to 292 °C.

In the case of `COC(=O)c1ccc(NC=O)nc1`, the melting point was 218 to 220 °C.

The compound `Oc1nn(-c2ccccc2)c2ccccc12` showed a melting point of 209 to 211 °C.

In turn, `O=c1c2c(Cc3ccccc3[N+](=O)[O-])n[nH]c2c2cccnc2n1-c1cccc(C(F)(F)F)c1` gave a melting point of 282 to 284 °C.

In the case of `O=C(N[C@H]1C=C[C@@H](C(=O)O)C1)c1ccccc1`, the melting point fell in the range of 150 to 151 °C.

Regarding `O=C1Nc2ccc(F)cc2Nc2sc3ccccc3c21`, the melting point lay within 249 to 250 °C.

In turn, `CN(Cc1ccc(NC(=O)C2=Cc3cc(-c4cccnc4)ccc3OCC2)cc1)C1CCOCC1` showed a melting point of 158 to 159 °C.

In the case of `CSc1ccc(/C(=C/CO)c2ccc(I)cc2)cc1`, the melting point was 91 to 95 °C.

`CC(C)c1ccc(Cn2nnnc2-c2ccc(OC(=O)C(C)(C)C)cc2)cc1` had a melting point of 111 to 113 °C.

As for `COc1cc(Nc2nccc(-c3ccc(N4CCCNCC4)nc3)n2)cc(OC)c1OC`, the melting point was 144 to 145 °C.

Turning to `COc1cc(C(=O)CCCN2CCC(OC(=O)c3cc(Cl)c(N)c4c3OC(C)(C)C4)CC2)cc(OC)c1OC`, the melting point was determined as 154 °C.

`CCOC(=O)C1=C(C)NC(c2nccn2C)=NC1c1ccccc1Cl` (stereo unspecified) registered a melting point of 124 to 127 °C.

Take `CCOC(=O)C(=NOCCBr)c1csc(NC=O)n1`: the melting point is 95 to 98 °C.

In the case of `CCCCCCCCCCCCCCCCOc1ccc(OCC(=O)Nc2cccc(CBr)c2)cc1`, the melting point is 183 to 186 °C.

Regarding `OC(Cc1cc(-c2ccccc2)on1)N1CCOCC1` (stereo unspecified), the melting point fell in the range of 134 to 136 °C.

For `COC(=O)c1cccc(C=Cc2nc3cc(F)ccc3s2)c1`, the melting point lay in the range of 172 to 173 °C.

`CC1(C)CC(=O)Nc2c(Br)cc3c(c21)OC(CBr)C3` (stereo unspecified) yielded a melting point of 237 to 239 °C.

`COc1ccc2c(C(=S)N(C)CC(N)=O)c(F)ccc2c1C(F)(F)F` yielded a melting point of 222 to 224 °C.

As for `CC(C(=O)N1c2ccccc2N(C)C(=O)c2cnc(-c3ccccc3)nc21)N1CCCCC1` (stereo unspecified), the melting point lay within 214 to 215 °C.

On to `CCN(CC)CCNc1cc(Cl)cc(NCCN(CC)CC)c1[N+](=O)[O-]`, for which the melting point turned out to be 90 °C.

`Cc1cc(-n2cnnc2)cc2ccc(=O)[nH]c12` gave a melting point of 369 to 371 °C.

On to `O=C(C=CC=Cc1ccccc1)c1cccc([N+](=O)[O-])c1`, for which the melting point was in the range of 58 to 60 °C.

The compound `N#Cc1cnn2c(-c3cc(Cl)ccc3Cl)ccnc12` gave a melting point of 202 to 204 °C.

In turn, `N#CC(=Cc1ccc(Cl)cc1Cl)n1cncn1` yielded a melting point of 156 to 160 °C.

`NC1C(=O)N(CC(O)C(F)(F)F)c2ccccc2-c2ccccc21` (stereo unspecified) showed a melting point of 192 to 194 °C.

With `c1cc(-c2ccc3[nH]cc4c3c2C[C@@H](N(CC2CC2)CC2CC2)C4)on1`, the melting point fell in the range of 146 to 147 °C.

Regarding `Cc1nnc2c(C(C)Br)ccnn12` (stereo unspecified), the melting point was 125 to 128 °C.

Take `CCCCCCCCCCCCCCCCCCSC(C)CC#N` (stereo unspecified): the melting point was determined as 38 °C.

In turn, `COC(=O)c1ccc2[nH]c(=O)oc2c1` showed a melting point of 149 to 151 °C.

Compound `O=[N+]([O-])c1ccc2c(c1)OCC2` displayed a melting point of 71 to 72 °C.

Turning to `CC(C)Oc1cc([N+](=O)[O-])ccc1-n1cccc1`, the melting point fell in the range of 59 to 61 °C.

`CC(=O)Nc1ccc2c(c1)CCC(CO)O2` (stereo unspecified) registered a melting point of 156 °C.

Compound `Cc1ccc(S(=O)(=O)C(CCCCCOc2ccc(Cl)cc2)C(=O)O)cc1` (stereo unspecified) came in with a melting point of 88 to 90 °C.

`COc1cc2c(cc1OC)CN(c1cc(Cl)ncn1)CC2` displayed a melting point of 88 to 89 °C.

For `CN1CC(CNCCC#N)CC2c3cccc4[nH]cc(c34)CC21` (stereo unspecified), the melting point lay within 169 to 171 °C.

Compound `CCCn1nc2c(N)nc3ccccc3c2c1CCCCS(=O)(=O)N(C)C` yielded a melting point of 144 to 146 °C.

With `Cc1cc(-n2cncn2)c2cccc(OCc3c(Cl)ccc(S(=O)(=O)N4CCC[C@H]4C(=O)NCCCN4CCCC4)c3Cl)c2n1`, the melting point was 86 °C.

Compound `COC(C)c1cccc(NC(=O)NCC(=O)N(CC(=O)N(C)c2ccccc2)c2ccccc2)c1` (racemic) came in with a melting point of 194 °C.

Take `CC(C)C[C@H](NC(=O)c1ccc2c(c1)Nc1ccccc1S2)C(=O)N[C@@H](CC(C)C)C(=O)N[C@@H](CC(C)C)C(=O)N[C@H]1CCOC1O` (stereo partly specified): the melting point is 174 to 176 °C.

`Cc1oc(-c2ccccc2)nc1COc1ccc2c(c1)CCC(C=C1SC(=O)NC1=O)=C2` registered a melting point of 271 to 272 °C.

As for `CC(C#Cc1cccc(OCc2ccccc2)c1)N(O)C(N)=O` (stereo unspecified), the melting point lay within 151 to 153 °C.

Consider `COc1ccc(-c2cccs2)cc1`, for which the melting point was 111 °C.

`C=C1C(=O)Nc2ccc(C(F)(F)F)cc2CC1c1ccc(OC)cc1` (stereo unspecified) returned a melting point of 181 to 183 °C.

With `Clc1ccc(Cn2nncc2CN2CCC(c3ccccc3)(c3ccccc3)CC2)cc1`, the melting point was found to be 195 °C.

`Cc1ccc(C(=O)n2c3c(c4cc(F)ccc42)CC(C(=O)O)CC3)cc1` (stereo unspecified) gave a melting point of 229 to 231 °C.

In the case of `COC(=O)CCC1(CCC(=O)OC)c2cc(N(c3ccccc3)c3cccc(C)c3)ccc2-c2ccc(N(c3ccccc3)c3cccc(C)c3)cc21`, the melting point fell in the range of 159 to 160 °C.

In turn, `CO/C(=C\C=C\c1cc2cc(C(F)(F)F)ccc2[nH]1)C(=O)O` yielded a melting point of 191 to 193 °C.

The values above are taken from a melting point compilation (Tetko et al.; mined from patent text by program, amines drawn as free bases though some values may be those of a salt).
